Numbered stars: 1 amine (or outer) side, 2 acyl side, 3 side chain; on linkers, the order of the positions; unused ones are H or OH. Bridge positions count the residues as written; N and C are the ends. Square brackets hold non-standard residues; d marks the D form. Side chains are listed from the residue outwards. Ends that are not written are not given here. Peptide text beside a SMILES is read from it. * marks the point of attachment. C18 diacid = O=C(O)CCCCCCCCCCCCCCCCC(=O)*; γGlu = O=C(O)[C@H](CCC(=O)[*:2])N[*:1]; Aib = CC(C)(N)C(=O)O
Legend:
[1] = biological target: T1, human amylin receptor (calcitonin receptor co-expressed with receptor activity modifying protein, RAMP3) (hAMYR3) (Homo sapiens, UniProt O60896+P30988); assay: cAMP production in 1321N1 cells with stable recombinant expression of human amylin receptor (hAMYR3); assay type: cell-based; settings: for Ratio (selectivity hAMYR vs hCTR, ratio of EC50 values at the two receptors): EC50 hCTR / EC50 hAMYR3; for EC50: cAMP, 1321N1 cells, assay buffer with 0.1% BSA, read-out: EC50 (pM) hAMYR3
T1 construct: expressed in transfected cells
T1 sequence (P30988 25-474): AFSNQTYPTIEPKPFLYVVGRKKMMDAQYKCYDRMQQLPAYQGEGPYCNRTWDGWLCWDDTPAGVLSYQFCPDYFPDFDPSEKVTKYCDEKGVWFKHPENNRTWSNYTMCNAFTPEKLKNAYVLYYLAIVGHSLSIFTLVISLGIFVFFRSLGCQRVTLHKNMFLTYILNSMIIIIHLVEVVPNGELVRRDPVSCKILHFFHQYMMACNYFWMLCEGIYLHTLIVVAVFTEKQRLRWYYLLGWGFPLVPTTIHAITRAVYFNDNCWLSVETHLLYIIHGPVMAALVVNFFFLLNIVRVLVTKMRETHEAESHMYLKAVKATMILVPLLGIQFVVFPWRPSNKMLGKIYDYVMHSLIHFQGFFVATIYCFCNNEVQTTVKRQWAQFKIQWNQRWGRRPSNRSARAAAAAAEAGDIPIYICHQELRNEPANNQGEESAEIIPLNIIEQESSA
T1 sequence (O60896 24-148 partner): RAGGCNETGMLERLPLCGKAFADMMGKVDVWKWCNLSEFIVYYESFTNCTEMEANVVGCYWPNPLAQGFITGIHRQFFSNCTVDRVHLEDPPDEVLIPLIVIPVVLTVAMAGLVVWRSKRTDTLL
Method in brief: (§1)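 Receptor-expressing cells (human receptors in 1321N1, rat receptors in HEK) incubated 30 min at room temperature with peptide in HBSS/HEPES pH 7.4, 0.1% BSA, 0.5 mM IBMX. cAMP read by HTRF; EC50 from 4-parameter fit as % of maximal amylin or calcitonin response.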

[2] = biological target: T2, human calcitonin receptor (hCTR) (Homo sapiens, UniProt P30988); assay: cAMP production in 1321N1 cells with stable recombinant expression of human calcitonin receptor (hCTR); assay type: cell-based; settings: cAMP, 1321N1 cells, assay buffer with 0.1% BSA; read-out: EC50 (pM) hCTR
T2 construct: expressed in transfected cells
T2 sequence (P30988 25-474): T1 sequence (P30988 25-474)
Method in brief: as §1

[3] = biological target: T3, rat amylin receptor (calcitonin receptor co-expressed with receptor activity modifying protein, RAMP3) (Rat AMYR3) (Rattus norvegicus, UniProt P32214+Q9JJ73); assay: cAMP production in HEK cells with stable recombinant expression of rat amylin receptor (Rat AMYR3); assay type: cell-based; settings: assay buffer with 0.1% BSA
T3 construct: expressed in transfected cells
T3 sequence (P32214 25-516): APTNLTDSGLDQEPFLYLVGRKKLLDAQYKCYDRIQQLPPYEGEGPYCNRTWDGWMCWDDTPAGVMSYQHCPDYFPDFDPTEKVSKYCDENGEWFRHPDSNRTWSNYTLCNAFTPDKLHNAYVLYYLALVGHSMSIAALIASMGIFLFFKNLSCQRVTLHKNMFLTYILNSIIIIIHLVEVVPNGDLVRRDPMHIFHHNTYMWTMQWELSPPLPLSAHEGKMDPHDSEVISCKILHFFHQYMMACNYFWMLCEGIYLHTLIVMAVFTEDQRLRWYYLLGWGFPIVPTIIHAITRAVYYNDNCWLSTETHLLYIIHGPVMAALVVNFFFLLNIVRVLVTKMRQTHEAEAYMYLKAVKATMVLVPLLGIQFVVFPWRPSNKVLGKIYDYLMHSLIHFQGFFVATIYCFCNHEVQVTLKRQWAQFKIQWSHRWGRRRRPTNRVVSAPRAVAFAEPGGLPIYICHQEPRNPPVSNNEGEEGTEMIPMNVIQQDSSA
T3 sequence (Q9JJ73 23-147 partner): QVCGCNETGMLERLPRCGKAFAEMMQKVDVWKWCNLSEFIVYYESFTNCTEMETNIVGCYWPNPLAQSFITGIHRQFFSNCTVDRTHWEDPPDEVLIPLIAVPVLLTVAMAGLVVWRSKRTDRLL
Method in brief: as §1

[4] = biological target: T4, rat calcitonin receptor (rat CTR) (Rattus norvegicus, UniProt P32214); assay: cAMP production in HEK cells with stable recombinant expression of rat calcitonin receptor (rat CTR); assay type: cell-based; settings: assay buffer with 0.1% BSA
T4 construct: expressed in transfected cells
T4 sequence (P32214 25-516): T3 sequence (P32214 25-516)
Method in brief: as §1

lean rats = assay: Rat acute food intake study; assay type: in vivo; settings: lean male Sprague Dawley rats, 20 nmol/kg subcutaneously
Method in brief: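 Male Sprague Dawley rats (n=7/group), fasted 6 h, received 20 nmol/kg test compound or 60 nmol/kg pramlintide subcutaneously 30 min before food return at dark onset. Food intake recorded automatically in home cages over 3 days, binned hourly and analysed as cumulative dark-period intake; body weight taken daily.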

[5] = Pharmacokinetic determination via IV and SC administration in Sprague Dawley rats; settings: male, rat, plasma, 20 nmol/kg
[6] = Roth et al. Br J Pharmacol 2012; cited from earlier work

CC[C@H](C)[C@H](NC(=O)[C@@H]1CCCN1C(=O)CNC(=O)[C@H](Cc1ccccc1)NC(=O)[C@H](CC(N)=O)NC(=O)[C@H](CC(N)=O)NC(=O)[C@H](CO)NC(=O)[C@H](CO)NC(=O)[C@H](Cc1c[nH]cn1)NC(=O)C(C)(C)NC(=O)[C@H](CC(C)C)NC(=O)[C@H](Cc1ccccc1)NC(=O)[C@H](CC(N)=O)NC(=O)[C@H](C)NC(=O)[C@H](CC(C)C)NC(=O)[C@H](CCCNC(=N)N)NC(=O)[C@H](CCC(N)=O)NC(=O)[C@@H](NC(=O)[C@H](C)NC(=O)[C@@H]1CSSC[C@H](NC(=O)[C@H](CCCCN)NC(=O)[C@@H](N)CCCCNC(=O)CC[C@H](NC(=O)CCCCCCCCCCCCCCCCC(=O)O)C(=O)O)C(=O)N[C@@H](CC(N)=O)C(=O)N[C@@H]([C@@H](C)O)C(=O)N[C@@H](C)C(=O)N[C@@H]([C@@H](C)O)C(=O)N1)[C@@H](C)O)C(=O)N[C@@H](CC(C)C)C(=O)N1CCC[C@H]1C(=O)N1CCC[C@H]1C(=O)N[C@H](C(=O)N[C@@H](CCC(=O)O)C(=O)N[C@H](C(=O)NCC(=O)N[C@@H](CO)C(=O)N[C@@H](CC(N)=O)C(=O)N[C@H](C(=O)N[C@@H](Cc1ccc(O)cc1)C(N)=O)[C@@H](C)O)C(C)C)[C@@H](C)O [Peptide 140] (H-K([γGlu-C18 diacid])KCNTATCATQRLANFL[Aib]HSSNNFGPILPPTEVGSNTY-NH2; disulfide 3-8; N-terminus assumed)
Ratio (selectivity hAMYR vs hCTR, ratio of EC50 values at the two receptors) [1]: 9.2
EC50 [1]: 656 pM
EC50 [2]: 6050 pM
EC50 [3]: 19.5 pM
EC50 [4]: 1220 pM
Cummulative food intake (% vehicle treated intake) At 12 h (lean rats): 62.4 % vehicle treated intake
Cummulative food intake (% vehicle treated intake) At 24 h (lean rats): 54.4 % vehicle treated intake
Cummulative food intake (% vehicle treated intake) At 48 h (lean rats): 56.5 % vehicle treated intake
half-life ([5]; iv): 10.6 h
half-life ([5]; sc): 12.9 h

CC[C@H](C)[C@H](NC(=O)[C@@H]1CCCN1C(=O)CNC(=O)[C@H](Cc1ccccc1)NC(=O)[C@H](CC(N)=O)NC(=O)[C@H](CC(N)=O)NC(=O)[C@H](CO)NC(=O)[C@H](CO)NC(=O)[C@H](Cc1c[nH]cn1)NC(=O)C(C)(C)NC(=O)[C@H](CC(C)C)NC(=O)[C@H](Cc1ccccc1)NC(=O)[C@H](CC(N)=O)NC(=O)[C@H](C)NC(=O)[C@H](CC(C)C)NC(=O)[C@H](CCCNC(=N)N)NC(=O)[C@H](CCC(N)=O)NC(=O)[C@@H](NC(=O)[C@H](C)NC(=O)[C@@H]1CSSC[C@H](NC(=O)[C@@H](N)CCCCNC(=O)CC[C@H](NC(=O)CCCCCCCCCCCCCCCCC(=O)O)C(=O)O)C(=O)N[C@@H](CC(N)=O)C(=O)N[C@@H]([C@@H](C)O)C(=O)N[C@@H](C)C(=O)N[C@@H]([C@@H](C)O)C(=O)N1)[C@@H](C)O)C(=O)N[C@@H](CC(C)C)C(=O)N1CCC[C@H]1C(=O)N1CCC[C@H]1C(=O)N[C@H](C(=O)N[C@@H](CC(N)=O)C(=O)N[C@H](C(=O)NCC(=O)N[C@@H](CO)C(=O)N[C@@H](CC(N)=O)C(=O)N[C@H](C(=O)N[C@@H](Cc1ccc(O)cc1)C(N)=O)[C@@H](C)O)C(C)C)[C@@H](C)O [Peptide 149] (H-K([γGlu-C18 diacid])CNTATCATQRLANFL[Aib]HSSNNFGPILPPTNVGSNTY-NH2; disulfide 2-7; N-terminus assumed)
Ratio (selectivity hAMYR vs hCTR, ratio of EC50 values at the two receptors) [1]: 9.2
EC50 [1]: 130 pM
EC50 [2]: 1200 pM
EC50 [3]: 5.6 pM
EC50 [4]: 522 pM
Cummulative food intake (% vehicle treated intake) At 12 h (lean rats): 31 % vehicle treated intake
Cummulative food intake (% vehicle treated intake) At 24 h (lean rats): 31.8 % vehicle treated intake
Cummulative food intake (% vehicle treated intake) At 48 h (lean rats): 17.5 % vehicle treated intake
half-life ([5]; iv): 6.9 h
half-life ([5]; sc): 9.3 h

amylin (KCNTATCATQRLANFLVHSSNNFGAILSSTNVGSNTY; not fully specified (C-terminus, bridges); cysteine pairing not given here; UniProt P10997 34-70, looked up) [native amylin, of which pramlintide is a synthetic analogue with three proline substitutions]
terminal half-life in rats [6]: around 13 minutes

— patent publication US20240067693A1, “POLYPEPTIDES AND USES THEREOF” (MEDIMMUNE LIMITED, priority 2020, published 2024)
